Measured values published in patent US20090036450A1, “PYRAZOLE COMPOUNDS AND USE THEREOF” (JAPAN TOBACCO, INC., priority 2006, published 2009).
pIC50: −log10 of the molar value. Where a name gives a salt, the structure may show the parent alone.

Target: T1, human liver glycogen phosphorylase (Homo sapiens, UniProt P06737)
T1 construct: made in house; host or cells: Sf9 insect cells (suspension of disrupted cells, diluted in BES buffer, not purified)
T1 sequence (P06737 1-847): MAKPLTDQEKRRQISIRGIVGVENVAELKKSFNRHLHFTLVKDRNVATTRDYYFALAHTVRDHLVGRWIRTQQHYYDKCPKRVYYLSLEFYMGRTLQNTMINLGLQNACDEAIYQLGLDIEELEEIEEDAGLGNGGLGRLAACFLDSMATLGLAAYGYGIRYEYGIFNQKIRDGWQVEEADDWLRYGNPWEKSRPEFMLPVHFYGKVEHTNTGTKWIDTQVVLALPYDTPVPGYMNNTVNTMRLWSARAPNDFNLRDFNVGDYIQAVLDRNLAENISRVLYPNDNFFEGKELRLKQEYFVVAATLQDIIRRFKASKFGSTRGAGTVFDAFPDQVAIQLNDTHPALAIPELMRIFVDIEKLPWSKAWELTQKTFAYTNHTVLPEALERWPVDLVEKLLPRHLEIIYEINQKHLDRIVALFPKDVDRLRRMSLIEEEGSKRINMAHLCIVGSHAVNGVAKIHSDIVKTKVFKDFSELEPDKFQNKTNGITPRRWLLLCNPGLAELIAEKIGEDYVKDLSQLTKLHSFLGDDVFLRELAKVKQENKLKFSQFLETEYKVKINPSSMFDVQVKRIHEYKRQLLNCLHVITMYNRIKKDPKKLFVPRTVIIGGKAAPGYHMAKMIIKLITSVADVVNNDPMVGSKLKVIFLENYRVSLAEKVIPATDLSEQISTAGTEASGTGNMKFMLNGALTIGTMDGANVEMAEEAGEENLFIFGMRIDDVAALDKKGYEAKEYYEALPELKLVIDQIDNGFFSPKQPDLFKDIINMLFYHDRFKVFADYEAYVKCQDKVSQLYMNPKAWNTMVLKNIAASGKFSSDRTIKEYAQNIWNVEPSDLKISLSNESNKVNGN
Assay: Liver glycogen phosphorylase activity, forward reaction system (NADPH detection at 340 nm)
Type: biochemical
Conditions: enzyme inhibitory activity against recombinant human liver glycogen phosphorylase (Sf9 cell lysate), room temperature, 75 minutes
Outline: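 Recombinant human liver glycogen phosphorylase from Sf9 lysate, run in forward direction with glycogen and phosphate substrate plus glucose, coupled via phosphoglucomutase/G6PDH to NADPH formation. BES buffer pH 6.8, room temperature, 75 min; A340 change minus blank gives activity. IC50 from percent inhibition vs DMSO control.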

Row | SMILES | pIC50
1 | Cc1nc(-c2ccc(Cl)s2)sc1CNC(=O)c1cc(NC(=O)c2cc(F)c(F)cc2Cl)[nH]n1 [Example 1-8, 5-(2-chloro-4,5-difluoro-benzoylamino)-1H-pyrazole-3-carboxylic acid [2-(5-chlorothiophen-2-yl)-4-methyl-thiazol-5-ylmethyl]-amide] | > 7.00
2 | O=C(NCc1nnc(-c2ccccc2O)o1)c1cc(NC(=O)c2cc(F)c(F)cc2Cl)[nH]n1 [Example 1-58, 5-(2-chloro-4,5-difluoro-benzoylamino)-1H-pyrazole-3-carboxylic acid [5-(2-hydroxy-phenyl)-[1,3,4]oxadiazol-2-ylmethyl]-amide] | > 7.00
3 | O=C(NCc1nnc(-c2cccc([N+](=O)[O-])c2)o1)c1cc(NC(=O)c2cc(F)c(F)cc2Cl)[nH]n1 [Example 1-56, 5-(2-chloro-4,5-difluoro-benzoylamino)-1H-pyrazole-3-carboxylic acid [5-(3-nitro-phenyl)-[1,3,4]oxadiazol-2-ylmethyl]-amide] | > 7.00
4 | CCN(CC)C(=O)COCc1nc(C)c(CNC(=O)c2cc(NC(=O)c3cc(F)c(F)cc3Cl)[nH]n2)o1 [Example 3-8, 5-(2-chloro-4,5-difluoro-benzoylamino)-1H-pyrazole-3-carboxylic acid (2-diethylcarbamoyl methoxymethyl-4-methyl-oxazol-5-ylmethyl)-amide] | > 7.00
5 | Cc1ncc(CNC(=O)c2cc(NC(=O)c3cc(F)c(F)cc3Cl)[nH]n2)c(C2CC2)n1 [Example 1-68, 5-(2-chloro-4,5-difluoro-benzoylamino)-1H-pyrazole-3-carboxylic acid (4-cyclopropyl-2-methyl-pyrimidin-5-ylmethyl)-amide] | > 7.00
6 | Cc1nc(Cn2nnc(CNC(=O)c3cc(NC(=O)c4cc(F)c(F)cc4Cl)[nH]n3)c2C)cs1 [Example 1-65, 5-(2-chloro-4,5-difluoro-benzoylamino)-1H-pyrazole-3-carboxylic acid [5-methyl-1-(2-methyl-thiazol-4-ylmethyl)-1H-[1,2,3]triazol-4-ylmethyl]-amide] | > 7.00
7 | Cc1nc(C2CC2)ncc1CNC(=O)c1cc(NC(=O)c2cc(F)c(F)cc2Cl)[nH]n1 [Example 1-80, 5-(2-chloro-4,5-difluoro-benzoylamino)-1H-pyrazole-3-carboxylic acid (2-cyclopropyl-4-methyl-pyrimidin-5-ylmethyl)-amide] | > 7.00
8 | Cc1cc(-c2nnc(CNC(=O)c3cc(NC(=O)c4cc(F)c(F)cc4Cl)[nH]n3)o2)[nH]n1 [Example 1-76, 5-(2-chloro-4,5-difluoro-benzoylamino)-1H-pyrazole-3-carboxylic acid [5-(5-methyl-2H-pyrazol-3-yl)-[1,3,4]oxadiazol-2-ylmethyl]-amide] | > 7.00
9 | O=C(NCc1csc(-c2ccc(Cl)cc2)n1)c1cc(NC(=O)c2cc(F)c(F)cc2Cl)[nH]n1 [Example 1-5, 5-(2-chloro-4,5-difluoro-benzoylamino)-1H-pyrazole-3-carboxylic acid [2-(4-chloro-phenyl)-thiazol-4-ylmethyl]-amide] | > 7.00
10 | O=C(NCc1nnc(-c2cccc(Cl)c2)s1)c1cc(NC(=O)c2cc(F)c(F)cc2Cl)[nH]n1 [Example 1-85] | > 7.00
11 | CCOC(=O)c1nc(C)oc1CNC(=O)c1cc(NC(=O)c2cc(F)c(F)cc2C)[nH]n1 [Example 2-1, 5-(4,5-difluoro-2-methyl-benzoylamino)-1H-pyrazole-3-carboxylic acid (4-ethoxycarbonyl-2-methyl-oxazol-5-ylmethyl)-amide] | > 7.00
12 | O=C(NCc1nnc(-c2cccc(Cl)c2)o1)c1cc(NC(=O)c2cc(F)c(F)cc2Cl)[nH]n1 [Example 1-59, 5-(2-chloro-4,5-difluoro-benzoylamino)-1H-pyrazole-3-carboxylic acid [5-(3-chloro-phenyl)-[1,3,4]oxadiazol-2-ylmethyl]-amide] | > 7.00
13 | Cc1nc(CO)oc1CNC(=O)c1cc(NC(=O)c2cc(F)c(F)cc2Cl)[nH]n1 [Example 3-24, 5-(2-chloro-4,5-difluoro-benzoylamino)-1H-pyrazole-3-carboxylic acid (2-hydroxymethyl-4-methyl-oxazol-5-ylmethyl)-amide hydrochloride] | > 7.00
14 | Cc1nc(C23CC4CC(CC(C4)C2)C3)c(CNC(=O)c2cc(NC(=O)c3cc(F)c(F)cc3Cl)[nH]n2)s1 [Example 1-11, 5-(2-chloro-4,5-difluoro-benzoylamino)-1H-pyrazole-3-carboxylic acid (4-adamantan-1-yl-2-methyl-thiazol-5-ylmethyl)-amide] | > 7.00
15 | Cc1nc(COCC(=O)NCc2ccccc2)oc1CNC(=O)c1cc(NC(=O)c2cc(F)c(F)cc2Cl)[nH]n1 [Example 3-9, 5-(2-chloro-4,5-difluoro-benzoylamino)-1H-pyrazole-3-carboxylic acid [2-(benzylcarbamoyl-methoxymethyl)-4-methyl-oxazol-5-ylmethyl]-amide] | > 7.00
16 | Cc1nc(COCC(=O)N2CCOCC2)oc1CNC(=O)c1cc(NC(=O)c2cc(F)c(F)cc2Cl)[nH]n1 [Example 3-10, 5-(2-chloro-4,5-difluoro-benzoylamino)-1H-pyrazole-3-carboxylic acid [4-methyl-2-(2-morpholin-4-yl-2-oxo-ethoxymethyl)-oxazol-5-ylmethyl]-amide] | > 7.00
17 | Cc1nc2c(s1)CN(C(=O)c1cc(NC(=O)c3cc(F)c(F)cc3Cl)[nH]n1)CC2 [Example 1-12] | 6.52 to 7.00
18 | Cc1onc(-c2ccccc2F)c1CNC(=O)c1cc(NC(=O)c2cc(F)c(F)cc2Cl)[nH]n1 [Example 1-17, 5-(2-chloro-4,5-difluoro-benzoylamino)-1H-pyrazole-3-carboxylic acid [3-(2-fluoro-phenyl)-5-methylisoxazol-4-ylmethyl]-amide] | 6.52 to 7.00
19 | Cc1nc(COC(=O)c2ccccc2)c(CNC(=O)c2cc(NC(=O)c3cc(F)c(F)cc3Cl)[nH]n2)o1 [Example 3-5, 5-(2-chloro-4,5-difluoro-benzoylamino)-1H-pyrazole-3-carboxylic acid (4-benzoyloxymethyl-2-methyl-oxazol-5-ylmethyl)-amide] | > 7.00
20 | Cc1nc(-c2ccc(-c3ccccc3)cc2)c(CNC(=O)c2cc(NC(=O)c3cc(F)c(F)cc3Cl)[nH]n2)o1 [Example 1-32, 5-(2-chloro-4,5-difluoro-benzoylamino)-1H-pyrazole-3-carboxylic acid (4-biphenyl-4-yl-2-methyl-oxazol-5-ylmethyl)-amide] | > 7.00
21 | O=C(NCc1nnc(-c2cccc(O)c2)o1)c1cc(NC(=O)c2cc(F)c(F)cc2Cl)[nH]n1 [Example 1-57, 5-(2-chloro-4,5-difluoro-benzoylamino)-1H-pyrazole-3-carboxylic acid [5-(3-hydroxy-phenyl)-[1,3,4]oxadiazol-2-ylmethyl]-amide] | > 7.00
22 | Cc1nc(COCC(=O)O)oc1CNC(=O)c1cc(NC(=O)c2cc(F)c(F)cc2Cl)[nH]n1 [Example 3-7, 5-(2-chloro-4,5-difluoro-benzoylamino)-1H-pyrazole-3-carboxylic acid (2-carboxymethoxymethyl-4-methyl-oxazol-5-ylmethyl)-amide] | > 7.00
23 | Cc1nc(-c2ccc(F)cc2)c(CNC(=O)c2cc(NC(=O)c3cc(F)c(F)cc3Cl)[nH]n2)o1 [Example 1-25, 5-(2-chloro-4,5-difluoro-benzoylamino)-1H-pyrazole-3-carboxylic acid [4-(4-fluoro-phenyl)-2-methyl-oxazol-5-ylmethyl]-amide] | > 7.00
24 | Cc1nc(CNC(=O)c2ccc(Cl)cc2)oc1CNC(=O)c1cc(NC(=O)c2cc(F)c(F)cc2Cl)[nH]n1 [Example 3-13, 5-(2-chloro-4,5-difluoro-benzoylamino)-1H-pyrazole-3-carboxylic acid {2-[(4-chloro-benzoylamino)-methyl]-4-methyl-oxazol-5-ylmethyl}-amide] | > 7.00
25 | CCc1nc(Cc2nc(C)c(CNC(=O)c3cc(NC(=O)c4cc(F)c(F)cc4Cl)[nH]n3)o2)n[nH]1 [Example 1-86, 5-(2-chloro-4,5-difluoro-benzoylamino)-1H-pyrazole-3-carboxylic acid [2-(5-ethyl-1H-[1,2,4]thiazol-3-ylmethyl)-4-methyl-oxazol-5-ylmethyl]-amide hydrochloride] | > 7.00
26 | O=C(NCc1nnc(-c2ccc(C(F)(F)F)cc2)o1)c1cc(NC(=O)c2cc(F)c(F)cc2Cl)[nH]n1 [Example 1-55, 5-(2-chloro-4,5-difluoro-benzoylamino)-1H-pyrazole-3-carboxylic acid [5-(4-trifluoromethyl-phenyl)-[1,3,4]oxadiazol-2-ylmethyl]-amide] | < 6.52
